Entries after “also recorded” stand apart in the source; their conditions may differ. Marks after values point to notes of the source that are not given here.
Columns and labels:
PAG [1] = target: T1, PAG (Rattus norvegicus, UniProt P13264); assay: In vitro PAG inhibition by drugs used in HE therapy; assay type: biochemical; details: for effect on PAG activity in vitro: 10 mM
T1 sequence (P13264 55-674): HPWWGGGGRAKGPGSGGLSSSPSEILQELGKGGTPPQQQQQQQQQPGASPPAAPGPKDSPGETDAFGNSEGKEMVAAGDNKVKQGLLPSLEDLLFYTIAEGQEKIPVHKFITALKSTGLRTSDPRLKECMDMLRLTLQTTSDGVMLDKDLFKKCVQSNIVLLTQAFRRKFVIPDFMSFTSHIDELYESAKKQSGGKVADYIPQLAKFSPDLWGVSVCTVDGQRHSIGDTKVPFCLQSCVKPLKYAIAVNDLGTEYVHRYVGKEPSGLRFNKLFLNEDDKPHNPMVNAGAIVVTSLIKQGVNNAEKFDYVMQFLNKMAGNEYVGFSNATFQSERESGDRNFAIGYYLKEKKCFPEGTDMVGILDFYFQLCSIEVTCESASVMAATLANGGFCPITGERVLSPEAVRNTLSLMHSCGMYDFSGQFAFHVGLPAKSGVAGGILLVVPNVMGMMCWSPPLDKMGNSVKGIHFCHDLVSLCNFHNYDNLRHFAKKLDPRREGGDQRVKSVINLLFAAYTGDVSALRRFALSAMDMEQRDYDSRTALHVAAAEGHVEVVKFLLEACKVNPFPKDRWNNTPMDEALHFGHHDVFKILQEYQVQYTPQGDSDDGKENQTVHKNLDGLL
Procedure: (§1) PAG inhibition analysis by different thiourea derivatives (THDP) was assayed in vitro, using the method of Heini for glutaminase activity determination, adapted to a microtiter procedure. This assay is based on the use of o-phthaldialdehyde/mercaptoethanol as a reagent for estimating ammonia released from glutamine. Briefly, 25 µl samples were added to 35 µl of a mixture of 150 mM potassium phosphate, 171 mM glutamine, 1 mM ammonium chloride, pH 8.0 and then incubated at 37°C for 45 min. The reaction was stopped by adding 10 µl 7% trichloroacetic acid, kept on ice for 15 min and centrifuged 5 min at 1000 × g. Aliquots of 5 µl/well were then mixed with 150 µl o-phthalaldehyde/mercaptoethanol reagent (14.4 ml 200 mM potassium phosphate, pH 7.4, 0.8 ml 72 mM mercaptoethanol in ethanol and 0.8 ml 186 mM o-phthaldialdehyde in ethanol). The samples were kept at room temperature in the dark and absorbance measured at 410 nm with a UV-Visible spectrophotometer (BioRad) after 45 min.
PAG activity inhibition was analyzed using 10 mM concentration. PAG activity in vitro was no affected by neomycin, lactitol and lactulose, rather, an increased activity was observed.

[2] = tested on: glutaminase activity in Caco2 cells; assay: Glutaminase inhibition by metformin in Caco2 cells; assay type: cell-based
Procedure: 6-Diazo-5-oxo-L-norleucine (DON) (0–100 µM) was used as positive control.

C57BL/6 mice [3] = assay: Acute toxicity, oral administration to mice with free access to food and water; assay type: in vivo; details: for Deaths before 6 h / Deaths before 12 h / Deaths before 24 h: N=4
Procedure: (§2) Lethal dose was determined by oral administration of the compounds to C57BL/6 mice. Thirty mice were supplied by the Centre of Production and Experimental animal of Espartinas, University of Seville, Spain. The animals were housed ten per cage, and maintained at constant room temperature (22°C ±2°C), with artificial light-dark cycle of 12 h and a relative humidity of 65%−70%, and free access to food and water during 2 weeks for acclimation. All animal procedures were performed with approval from the Sevilla University Animal Ethics Committees, under the guidelines of the directive 86/609/CEE of the European Union. Two assays in different conditions were performed. […] They were sacrificed 24 h latter and a macroscopic analysis of the tissues (lungs, heart, liver, stomach and intestine) was performed. […] In this case, mice were sacrificed 24 or 72 h latter and the same macroscopic analysis was performed.
(§3) The undiluted compound has low systemic toxicity but a marked local necrotizing and inflammatory effect when it is administered orally. […] There were few fluctuations in histopathological values but no changes appear to be drug-related or of significance. […] Therefore, we repeat the assay using feed animals.

C57BL/6 mice [4] = assay: Acute toxicity, oral administration to 12 h fasted mice; assay type: in vivo; details: for Deaths before 6 h / Deaths before 12 h: oral, N=3
Procedure: as §2, §3

[5] = target: T2, glutaminase obtained from both kidney and intestine mitochondria (K-PAG) (Rattus norvegicus, UniProt P13264); assay: In vitro inhibition screening of glutaminase activity (Heini method, ammonia released from glutamine); assay type: biochemical
T2 construct: an enriched preparation of glutaminase obtained from both kidney and intestine mitochondria; from tissue; host or cells: rat kidney and intestine mitochondria, solubilised with 1% Triton X-100
T2 sequence (P13264 55-674): T1 sequence (P13264 55-674)
Procedure: as §1, with “Aliquots of 5 µl/well were then mixed with 150 µl o-phthalaldehyde/mercaptoethanol reagent (14.4 ml 200 mM potassium phosphate, pH 7.4, 0.8 ml 72 mM mercaptoethanol in ethanol and 0.8 ml 186 mM o-phthaldialdehyde in ethanol).” left out
(§4) K-PAG activity was assayed, in presence and absence of the inhibitor; using isolated mitochondria from rat intestine and kidney, solubilized with 1% Triton X-100 as a source of glutaminase. Enzymatic activity was measured using a two-step assay as described by Lund. Protein concentration was determined following Bradford method using serum albumin as standard.
The first group analysed in this work is integrated by a small molecule compounds library derived from thiourea. […]

Caco-2 cells = assay: Cytotoxicity assay in Caco-2 cells after 24 h exposure; assay type: cell-based; details: Caco-2, 24 h exposure
Procedure: Regression analysis of dose-response curves and calculation of IC50 were done according to standard procedure using appropriated software.
Acute toxicity test in animals is typically the first step in the evaluation of the effects of a chemical compound, and its primary purpose is to provide information on potential health hazards that may result from a short-term exposure. […] In the present work, cytotoxicity of a 24 h-exposure to selected inhibitors was evaluated in Caco-2 cells using the MTT method developed by Mosmann and modified by Denizot and Lang.

[6] = tested on: swine K-PAG (from kidney); assay: In vitro optimised kinetic assay with increasing inhibitor concentrations; assay type: biochemical
Procedure: as §4
First, increasing concentration of inhibitors (ranging from 1 µM to 10 mM) were added to standard and optimized enzymatic assay conditions with 99 mmol/l glutamine, 150 mmol/l phosphate and 100 µg K-PAG (Figure 1).

PAG [7] = assay: PAG kinetic parameters in absence and presence of THDP-17 (double reciprocal plot); assay type: biochemical, swine
Procedure: as §4
Figure 3 THDP17 inhibition kinetics. A lineal double reciprocal plot (1/v against 1/[Gln]) in absence (0) and presence (10 µM) of the inhibitor is shown. […] All experiments were performed in triplicates; p>0.05.

[8] = tested on: glutaminase activity (PAG) in Caco-2 cells; assay: Inhibition assay in cell culture (glutamate produced from glutamine, HPLC); assay type: cell-based
From the text: Results are shown on Figure 4.

[9] = fed mice, oral, 50 mg/Kg in DMSO
[10] = fed mice, oral, 300 mg/Kg in DMSO

Compound: OC[C@H]1O[C@@H](O[C@@H]2[C@@H](CO)OC(O)(CO)[C@H]2O)[C@H](O)[C@@H](O)[C@H]1O (mixture of isomers) [lactulose]
- effect on PAG activity in vitro (PAG [1]): no affected

Compound: OC[C@@H](O)[C@@H](O[C@@H]1O[C@H](CO)[C@H](O)[C@H](O)[C@H]1O)[C@H](O)[C@@H](O)CO [lactitol]
- effect on PAG activity in vitro (PAG [1]): no affected

Compound: CN(C)C(=N)N=C(N)N [metformin]
- inhibition rates at higher concentrations ([2]; Caco2, 50, 100 and 200 mM): did not yield higher inhibition rates
- inhibition at 20000 µM ([2]; Homo sapiens, Caco-2, 72 h): 24%
- inhibition kinetics (PAG [1]; Dixon plot): competitive inhibition kinetics
- inhibition at 10000 µM (PAG [1]; read-out: PAG inhibition): 17.5%
- inhibition at 100000 µM (PAG [1]; read-out: PAG inhibition): 68%

Compound: N-(3-methyl-3-butenyl)-N′-phenylthiourea [THDP-17]
- deaths during the experimental period (C57BL/6 mice [3]; fed mice): no deaths were observed
- macroscopic organs analysis (C57BL/6 mice [3]; fed mice sacrificed at 24 and 72 h, less pronounced than in fasted group): gastrointestinal ulcers and duodenum bleeding
- Deaths before 6 h (C57BL/6 mice [3]; [9]): 0
- Deaths before 12 h (C57BL/6 mice [3]; [9]): 0
- Deaths before 24 h (C57BL/6 mice [3]; [9]): 0
- Deaths before 12 h (C57BL/6 mice [3]; [10]): 0
- Deaths before 24 h (C57BL/6 mice [3]; [10]): 0
- Deaths before 6 h (C57BL/6 mice [3]; fed mice, oral, 300 mg/Kg in DMSO, animal without water): 1 ^*
- toxicity in vivo (conclusion) (C57BL/6 mice [3]; mice, oral): no toxic in vivo
- macroscopic findings in the gastrointestinal tract (C57BL/6 mice [4]; also seen with DMSO vehicle alone): gastrointestinal ulcers and duodenum bleeding
- histopathological damages in lungs, heart or liver (C57BL/6 mice [4]; compared to DMSO alone): No essential or histopathological damages
- Deaths before 6 h (C57BL/6 mice [4]; 50 mg/Kg in DMSO): 1
- Deaths before 12 h (C57BL/6 mice [4]; 50 mg/Kg in DMSO): 1
- Deaths before 6 h (C57BL/6 mice [4]; 300 mg/Kg in DMSO): 1
- Deaths before 12 h (C57BL/6 mice [4]; 300 mg/Kg in DMSO): 1
- Deaths before 6 h (C57BL/6 mice [4]; 2000 mg/Kg in DMSO): 2
- Deaths before 12 h (C57BL/6 mice [4]; 2000 mg/Kg in DMSO): 1
- inhibition of intestinal glutaminase activity ([5]; THDP-17 10 µM): 57.4±6.7%
- inhibition of K-PAG activity (screening result) ([5]; thiourea library screening): could inhibit K-PAG activity
- cytotoxicity (cell viability) (Caco-2 cells): did not show cytotoxicity
- IC50 ([6]; 99 mmol/l glutamine, 150 mmol/l phosphate, 100 µg K-PAG): 3.9 ± 0.1 µM
- extent of PAG inhibition at low milimolar concentrations ([6]; low milimolar concentrations, plateau): inhibits PAG activity partially
- inhibition model (PAG [7]; double reciprocal plot): not-pure-uncompetitive inhibitor; also recorded: uncompetitive inhibition
- Vmax (PAG [7]; with THDP-17 10 µM): 384.62 µmol/min
- Vmax-ap (PAG [7]; with THDP-17 10 µM, without inhibitor 0.67 mmol min^-1): 0.38 mmol/min
- concentration at which PAG inhibition in cell cultures is effective ([8]; Caco-2): higher than 5 µM
- PAG inhibition in cell cultures ([8]; Caco-2, 20 µM): 18±2.1%
- PAG inhibition in cell cultures ([8]; Caco-2, 100 µM): 46±3.4%

Compound: neomycin
- effect on PAG activity in vitro (PAG [1]): no affected

Source: publication PMC4201470, “THDP17 Decreases Ammonia Production through Glutaminase Inhibition. A New Drug for Hepatic Encephalopathy Therapy” (PLoS ONE, 2014)
